Measured values as given in article PMC9653409, “Generative deep learning enables the discovery of a potent and selective RIPK1 inhibitor” (Nature Communications, 2022).

What was measured:
Assay in all cases: Kinase inhibitory activity profiling of RI-962@10 µM (406 kinases, Eurofins)
Assay type in all cases: biochemical
[1] = molecular target: panel of human kinases (kinase named in endpoint) (Homo sapiens, UniProt P54756); conditions: 10 µM; read-out: Activity (%), EphA5(h)
Outline: (§1)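 Radiometric filter-binding kinase assays: enzyme preincubated 15 min with compound in 8 mM MOPS pH 7.0, 0.2 mM EDTA, 250 μM peptide substrate, 10 mM magnesium acetate, 10 μM [γ-33P]-ATP. Reaction started with Mg/ATP, run 40 min at room temperature, stopped with phosphoric acid; 33P incorporation read by scintillation counting. Other kinases by similar protocols.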

[2] = molecular target: panel of human kinases (kinase named in endpoint) (Homo sapiens, UniProt P07332); conditions: 10 µM; read-out: Activity (%), Fes(h)
Outline: as §1

[3] = molecular target: panel of human kinases (kinase named in endpoint) (Homo sapiens, UniProt Q9P289); conditions: 10 µM; read-out: Activity (%), MST4(h)
Outline: as §1

[4] = molecular target: panel of human kinases (kinase named in endpoint) (Homo sapiens, UniProt P07948); conditions: 10 µM; read-out: Activity (%), Lyn(h)
Outline: as §1

[5] = molecular target: panel of human kinases (kinase named in endpoint) (Homo sapiens, UniProt O14757); conditions: 10 µM; read-out: Activity (%), CHK1(h)
Outline: as §1

[6] = molecular target: panel of human kinases (kinase named in endpoint) (Homo sapiens, UniProt Q8WTQ7); conditions: 10 µM; read-out: Activity (%), GRK7(h)
Chain of panel of human kinases (kinase named in endpoint) (Homo sapiens, UniProt Q8WTQ7) (Q8WTQ7 whole entry): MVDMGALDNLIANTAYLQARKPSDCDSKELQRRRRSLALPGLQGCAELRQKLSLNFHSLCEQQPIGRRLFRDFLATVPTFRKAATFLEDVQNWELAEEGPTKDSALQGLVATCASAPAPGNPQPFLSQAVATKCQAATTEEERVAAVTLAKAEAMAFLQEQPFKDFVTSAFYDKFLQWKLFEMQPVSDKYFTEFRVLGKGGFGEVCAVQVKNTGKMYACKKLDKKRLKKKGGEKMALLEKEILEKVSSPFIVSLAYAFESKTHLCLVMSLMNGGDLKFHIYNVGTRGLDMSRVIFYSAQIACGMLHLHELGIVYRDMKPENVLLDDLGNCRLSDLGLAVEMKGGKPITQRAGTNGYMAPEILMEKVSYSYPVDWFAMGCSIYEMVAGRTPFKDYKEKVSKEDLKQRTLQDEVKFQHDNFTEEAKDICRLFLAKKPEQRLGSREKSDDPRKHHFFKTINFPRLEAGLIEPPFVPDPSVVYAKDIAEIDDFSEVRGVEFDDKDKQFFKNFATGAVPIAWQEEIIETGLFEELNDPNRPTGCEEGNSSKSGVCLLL
Outline: as §1

[7] = molecular target: panel of human kinases (kinase named in endpoint) (Homo sapiens, UniProt Q99986); conditions: 10 µM; read-out: Activity (%), VRK1(h)
Outline: as §1

[8] = molecular target: panel of human kinases (kinase named in endpoint) (Homo sapiens, UniProt P15735); conditions: 10 µM; read-out: Activity (%), PhKγ2(h)
Outline: as §1

[9] = molecular target: panel of human kinases (kinase named in endpoint) (Homo sapiens, UniProt Q9H1R3); conditions: 10 µM; read-out: Activity (%), MYLK2(h)
Chain of panel of human kinases (kinase named in endpoint) (Homo sapiens, UniProt Q9H1R3) (Q9H1R3 whole entry): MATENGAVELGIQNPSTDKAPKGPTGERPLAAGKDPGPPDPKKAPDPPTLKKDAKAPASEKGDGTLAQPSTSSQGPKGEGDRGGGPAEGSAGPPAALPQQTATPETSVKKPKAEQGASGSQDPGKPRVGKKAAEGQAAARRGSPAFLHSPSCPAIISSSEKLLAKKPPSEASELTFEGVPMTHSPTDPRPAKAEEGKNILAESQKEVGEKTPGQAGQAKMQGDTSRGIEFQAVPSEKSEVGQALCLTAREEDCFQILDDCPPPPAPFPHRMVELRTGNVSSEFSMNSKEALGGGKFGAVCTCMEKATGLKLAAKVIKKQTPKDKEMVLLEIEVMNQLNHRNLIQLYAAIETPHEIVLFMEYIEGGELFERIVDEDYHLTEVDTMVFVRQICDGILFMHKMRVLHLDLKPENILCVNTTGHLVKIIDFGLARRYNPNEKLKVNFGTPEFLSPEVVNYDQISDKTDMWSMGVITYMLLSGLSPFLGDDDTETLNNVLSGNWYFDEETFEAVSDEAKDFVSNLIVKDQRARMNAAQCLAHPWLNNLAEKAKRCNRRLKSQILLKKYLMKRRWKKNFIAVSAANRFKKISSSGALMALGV
Outline: as §1

[10] = molecular target: panel of human kinases (kinase named in endpoint) (Homo sapiens, UniProt Q06187, R28H); conditions: 10 µM; read-out: Activity (%), BTK(R28H)(h)
Outline: as §1

[11] = molecular target: panel of human kinases (kinase named in endpoint) (Homo sapiens, UniProt Q09013); conditions: 10 µM; read-out: Activity (%), DMPK(h)
Outline: as §1

[12] = molecular target: panel of human kinases (kinase named in endpoint) (Homo sapiens, UniProt Q96SB4); conditions: 10 µM; read-out: Activity (%), SRPK1(h)
Chain of panel of human kinases (kinase named in endpoint) (Homo sapiens, UniProt Q96SB4) (Q96SB4 whole entry): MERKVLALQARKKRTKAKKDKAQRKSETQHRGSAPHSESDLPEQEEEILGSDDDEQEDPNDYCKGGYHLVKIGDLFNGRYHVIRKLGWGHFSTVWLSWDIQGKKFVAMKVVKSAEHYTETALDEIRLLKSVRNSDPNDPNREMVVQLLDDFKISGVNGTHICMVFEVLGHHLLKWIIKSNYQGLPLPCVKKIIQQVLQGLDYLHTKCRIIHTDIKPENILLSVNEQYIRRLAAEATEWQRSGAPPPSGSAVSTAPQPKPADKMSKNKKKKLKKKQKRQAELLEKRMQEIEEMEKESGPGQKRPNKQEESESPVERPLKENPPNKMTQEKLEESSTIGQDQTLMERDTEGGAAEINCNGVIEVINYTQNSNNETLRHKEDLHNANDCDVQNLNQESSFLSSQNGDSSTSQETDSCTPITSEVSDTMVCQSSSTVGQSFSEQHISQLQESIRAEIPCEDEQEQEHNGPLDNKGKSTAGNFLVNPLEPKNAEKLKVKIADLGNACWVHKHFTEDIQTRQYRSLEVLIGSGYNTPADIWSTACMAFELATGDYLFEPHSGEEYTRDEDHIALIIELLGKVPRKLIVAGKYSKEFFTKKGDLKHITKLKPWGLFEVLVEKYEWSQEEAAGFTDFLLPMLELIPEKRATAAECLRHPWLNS
Outline: as §1

[13] = molecular target: panel of human kinases (kinase named in endpoint) (Homo sapiens, UniProt Q5VT25); conditions: 10 µM; read-out: Activity (%), MRCKα(h)
Outline: as §1

[14] = molecular target: panel of human kinases (kinase named in endpoint) (Homo sapiens, UniProt Q9Y3S1); conditions: 10 µM; read-out: Activity (%), WNK2(h)
Chain of panel of human kinases (kinase named in endpoint) (Homo sapiens, UniProt Q9Y3S1) (Q9Y3S1 whole entry): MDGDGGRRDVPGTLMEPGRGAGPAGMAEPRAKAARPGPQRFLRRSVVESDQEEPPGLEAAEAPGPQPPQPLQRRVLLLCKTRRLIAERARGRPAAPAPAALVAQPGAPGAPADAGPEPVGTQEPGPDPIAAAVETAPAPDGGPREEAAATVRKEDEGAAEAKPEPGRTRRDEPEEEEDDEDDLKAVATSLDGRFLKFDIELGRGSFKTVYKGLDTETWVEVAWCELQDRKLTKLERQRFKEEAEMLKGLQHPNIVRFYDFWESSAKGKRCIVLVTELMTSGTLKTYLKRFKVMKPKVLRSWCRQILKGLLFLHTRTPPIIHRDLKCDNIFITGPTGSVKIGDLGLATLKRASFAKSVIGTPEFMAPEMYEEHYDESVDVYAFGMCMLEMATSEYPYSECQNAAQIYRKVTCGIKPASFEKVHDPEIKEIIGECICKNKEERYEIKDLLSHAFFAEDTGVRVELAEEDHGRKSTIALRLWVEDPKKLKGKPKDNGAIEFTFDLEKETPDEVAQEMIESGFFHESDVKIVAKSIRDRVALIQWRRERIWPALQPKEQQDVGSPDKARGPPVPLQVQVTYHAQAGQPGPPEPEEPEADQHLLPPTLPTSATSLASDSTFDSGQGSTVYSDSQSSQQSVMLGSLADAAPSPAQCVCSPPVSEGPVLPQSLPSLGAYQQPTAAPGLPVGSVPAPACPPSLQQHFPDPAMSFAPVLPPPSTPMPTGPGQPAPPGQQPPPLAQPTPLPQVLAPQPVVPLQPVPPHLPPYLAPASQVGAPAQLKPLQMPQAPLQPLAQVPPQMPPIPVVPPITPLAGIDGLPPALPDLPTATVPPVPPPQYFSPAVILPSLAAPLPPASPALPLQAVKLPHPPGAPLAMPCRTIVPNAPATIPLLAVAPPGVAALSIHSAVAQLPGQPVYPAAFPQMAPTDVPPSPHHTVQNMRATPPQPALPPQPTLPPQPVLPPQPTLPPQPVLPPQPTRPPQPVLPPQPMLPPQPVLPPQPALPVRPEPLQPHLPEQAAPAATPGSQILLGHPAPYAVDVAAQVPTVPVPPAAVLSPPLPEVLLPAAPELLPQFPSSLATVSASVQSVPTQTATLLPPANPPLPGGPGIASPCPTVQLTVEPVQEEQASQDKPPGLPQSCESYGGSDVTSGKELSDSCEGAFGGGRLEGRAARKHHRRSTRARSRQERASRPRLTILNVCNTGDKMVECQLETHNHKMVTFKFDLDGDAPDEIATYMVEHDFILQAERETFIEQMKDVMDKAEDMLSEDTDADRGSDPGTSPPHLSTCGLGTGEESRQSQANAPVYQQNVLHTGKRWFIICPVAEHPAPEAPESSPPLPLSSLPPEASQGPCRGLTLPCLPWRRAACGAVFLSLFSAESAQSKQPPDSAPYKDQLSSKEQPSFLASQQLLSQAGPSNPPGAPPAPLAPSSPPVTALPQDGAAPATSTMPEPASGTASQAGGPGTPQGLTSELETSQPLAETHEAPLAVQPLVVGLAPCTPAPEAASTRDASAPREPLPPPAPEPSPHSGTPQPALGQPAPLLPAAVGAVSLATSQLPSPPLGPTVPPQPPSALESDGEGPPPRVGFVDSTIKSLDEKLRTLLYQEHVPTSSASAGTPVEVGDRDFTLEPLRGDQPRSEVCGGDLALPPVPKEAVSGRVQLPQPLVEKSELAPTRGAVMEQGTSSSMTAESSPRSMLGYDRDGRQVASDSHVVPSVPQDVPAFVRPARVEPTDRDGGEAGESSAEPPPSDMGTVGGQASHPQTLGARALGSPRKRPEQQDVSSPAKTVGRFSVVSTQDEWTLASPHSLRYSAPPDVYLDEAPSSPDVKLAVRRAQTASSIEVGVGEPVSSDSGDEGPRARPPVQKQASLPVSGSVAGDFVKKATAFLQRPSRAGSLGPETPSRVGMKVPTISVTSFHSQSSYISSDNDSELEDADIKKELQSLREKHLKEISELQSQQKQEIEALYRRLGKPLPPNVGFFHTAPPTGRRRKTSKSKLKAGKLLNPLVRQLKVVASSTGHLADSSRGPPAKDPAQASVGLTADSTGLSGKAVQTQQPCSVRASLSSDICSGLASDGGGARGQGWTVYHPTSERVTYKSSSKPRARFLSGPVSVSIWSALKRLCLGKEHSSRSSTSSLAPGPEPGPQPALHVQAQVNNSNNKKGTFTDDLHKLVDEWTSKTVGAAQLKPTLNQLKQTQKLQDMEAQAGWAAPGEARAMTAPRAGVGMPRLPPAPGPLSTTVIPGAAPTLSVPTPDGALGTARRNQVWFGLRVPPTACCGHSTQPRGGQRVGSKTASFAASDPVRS
Outline: as §1

[15] = molecular target: panel of human kinases (kinase named in endpoint) (Homo sapiens, UniProt Q05397); conditions: 10 µM; read-out: Activity (%), FAK(h)
Outline: as §1

[16] = molecular target: panel of human kinases (kinase named in endpoint) (Homo sapiens, UniProt Q06187); conditions: 10 µM; read-out: Activity (%), BTK(h)
Outline: as §1

[17] = molecular target: panel of human kinases (kinase named in endpoint) (Homo sapiens, UniProt Q96RR4); conditions: 10 µM; read-out: Activity (%), CaMKK2(h)
Outline: as §1

[18] = molecular target: panel of human kinases (kinase named in endpoint) (Homo sapiens, UniProt P11362, V561M); conditions: 10 µM; read-out: Activity (%), FGFR1(V561M)(h)
Outline: as §1

[19] = molecular target: panel of human kinases (kinase named in endpoint) (Homo sapiens, UniProt P08581, D1228H); conditions: 10 µM; read-out: Activity (%), Met(D1246H)(h)
Outline: as §1

[20] = molecular target: panel of human kinases (kinase named in endpoint) (Homo sapiens, UniProt Q13555); conditions: 10 µM; read-out: Activity (%), CaMKIIγ(h)
Outline: as §1

[21] = molecular target: panel of human kinases (kinase named in endpoint) (Homo sapiens, UniProt Q2M2I8); conditions: 10 µM; read-out: Activity (%), AAK1(h)
Outline: as §1

[22] = molecular target: panel of human kinases (kinase named in endpoint) (Homo sapiens, UniProt Q8N4C8); conditions: 10 µM; read-out: Activity (%), MINK(h)
Outline: as §1

[23] = molecular target: panel of human kinases (kinase named in endpoint) (Homo sapiens, UniProt P27448); conditions: 10 µM; read-out: Activity (%), MARK3(h)
Chain of panel of human kinases (kinase named in endpoint) (Homo sapiens, UniProt P27448) (P27448 whole entry): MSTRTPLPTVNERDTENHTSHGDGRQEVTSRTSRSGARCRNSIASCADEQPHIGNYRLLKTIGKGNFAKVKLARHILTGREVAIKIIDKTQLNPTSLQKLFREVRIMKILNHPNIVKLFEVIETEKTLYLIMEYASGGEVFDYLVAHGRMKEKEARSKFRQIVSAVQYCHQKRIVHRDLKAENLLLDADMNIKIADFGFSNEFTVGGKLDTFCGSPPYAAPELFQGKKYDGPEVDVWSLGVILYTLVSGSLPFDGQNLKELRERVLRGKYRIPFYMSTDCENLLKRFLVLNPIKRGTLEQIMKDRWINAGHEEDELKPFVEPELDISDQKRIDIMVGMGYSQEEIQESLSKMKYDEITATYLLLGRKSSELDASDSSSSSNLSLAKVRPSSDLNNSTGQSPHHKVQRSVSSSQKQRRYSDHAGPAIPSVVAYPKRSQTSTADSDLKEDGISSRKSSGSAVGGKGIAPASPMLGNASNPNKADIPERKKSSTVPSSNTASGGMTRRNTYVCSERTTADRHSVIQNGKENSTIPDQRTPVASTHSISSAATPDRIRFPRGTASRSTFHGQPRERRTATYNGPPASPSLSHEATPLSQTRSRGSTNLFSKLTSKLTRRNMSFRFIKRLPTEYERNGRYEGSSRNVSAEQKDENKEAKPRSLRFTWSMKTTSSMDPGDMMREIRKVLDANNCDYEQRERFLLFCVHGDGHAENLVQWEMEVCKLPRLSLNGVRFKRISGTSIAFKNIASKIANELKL
Outline: as §1

[24] = molecular target: panel of human kinases (kinase named in endpoint) (Homo sapiens, UniProt Q9NZJ5); conditions: 10 µM; read-out: Activity (%), PEK(h)
Outline: as §1

[25] = molecular target: panel of human kinases (kinase named in endpoint) (Homo sapiens, UniProt P42336, H1047R); conditions: 10 µM; read-out: Activity (%), PI3 Kinase (p110a(H1047R)/p85a)(h)
Outline: as §1

Compound: CC(C)C(=O)Nc1nc2cc(-c3ccc4c(c3)c(C(=O)NC(C)c3ccccc3)cn4C)ccn2n1 (stereo not shown) [RI-962]
- activity at 10 µM [1]: 93%
- activity at 10 µM [2]: 99%
- activity at 10 µM [3]: 119%
- activity at 10 µM [4]: 65%
- activity at 10 µM [5]: 124%
- activity at 10 µM [6]: 60%
- activity at 10 µM [7]: 86%
- activity at 10 µM [8]: 93%
- activity at 10 µM [9]: 86%
- activity at 10 µM [10]: 105%
- activity at 10 µM [11]: 89%
- activity at 10 µM [12]: 102%
- activity at 10 µM [13]: 94%
- activity at 10 µM [14]: 79%
- activity at 10 µM [15]: 108%
- activity at 10 µM [16]: 92%
- activity at 10 µM [17]: 81%
- activity at 10 µM [18]: 99%
- activity at 10 µM [19]: 134%
- activity at 10 µM [20]: 93%
- activity at 10 µM [21]: 106%
- activity at 10 µM [22]: 63%
- activity at 10 µM [23]: 84%
- activity at 10 µM [24]: 94%
- activity at 10 µM [25]: 99%
